Legend:
velvetleaf = assay: Test B pre/postemergence velvetleaf; type: in vivo, Abutilon theophrasti
Method in brief: (§1)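 Response is a visual 0-to-10 score relative to untreated plants, where 0 means no effect and 10 means complete control, taken twelve to sixteen days after application. Treatments went onto soil at planting and onto foliage of 1- to 4-leaf plants, using a surfactant-containing non-phytotoxic solvent.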

wheat = assay: Test B pre/postemergence wheat; type: in vivo, Triticum aestivum
Method in brief: as §1

cocklebur = assay: Test B pre/postemergence cocklebur; type: in vivo, Xanthium strumarium
Method in brief: as §1

blackgrass = assay: Test B pre/postemergence blackgrass; type: in vivo, Alopecurus myosuroides
Method in brief: as §1

pigweed = assay: Test B pre/postemergence pigweed; type: in vivo, Amaranthus retroflexus
Method in brief: as §1

sugar beet = assay: Test B pre/postemergence sugar beet; type: in vivo, Beta vulgaris
Method in brief: as §1

surinam grass = assay: Test B pre/postemergence surinam grass; type: in vivo, Brachiaria decumbens
Method in brief: as §1

bamyardgrass = assay: Test B flood test barnyardgrass; type: in vivo, Echinochloa crus-galli
Method in brief: (§2)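 Each value is a visual injury score relative to controls, with 10 meaning complete control and 0 no effect. Evaluation took place twelve to sixteen days after the 2-leaf-stage plants were treated and kept in the greenhouse.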

wild oat = assay: Test B pre/postemergence wild oat; type: in vivo, Avena fatua
Method in brief: as §1

corn = assay: Test B pre/postemergence corn; type: in vivo, Zea mays
Method in brief: as §1

morningglory = assay: Test B pre/postemergence morningglory; type: in vivo, Ipomoea hederacea
Method in brief: as §1

soybean = assay: Test B pre/postemergence soybean; type: in vivo, Glycine max
Method in brief: as §1

giant foxtail = assay: Test B pre/postemergence giant foxtail; type: in vivo, Setaria faberii
Method in brief: as §1

rice = assay: Test B flood test rice; type: in vivo, Oryza sativa
Method in brief: as §2

crabgrass = assay: Test B pre/postemergence crabgrass; type: in vivo, Digitaria sanguinalis
Method in brief: as §1

duck salad = assay: Test B flood test duck salad; type: in vivo, Heteranthera limosa
Method in brief: as §2

[1] = Postemergence, Rate 250 g/ha, scale 0 to 10
[2] = Postemergence, Rate 500 g/ha, scale of 0 to 10 where 0 is no effect and 10 is complete control
[3] = Preemergence, Rate 62 g/ha, scale 0 to 10 (0 no effect, 10 complete control)
[4] = Preemergence, Rate 125 g/ha, scale of 0 to 10 where 0 is no effect and 10 is complete control
[5] = Preemergence, Rate 250 g/ha, scale 0 to 10, 0 is no effect, 10 is complete control
[6] = Preemergence, Rate 500 g/ha, scale 0 to 10, 0 is no effect, 10 is complete control
[7] = Rate 125 g/ha, Postemergence, scale 0 to 10, 0 is no effect, 10 is complete control
[8] = Rate 62 g/ha, Postemergence, scale of 0 to 10 where 0 is no effect and 10 is complete control
[9] = Postemergence block (flood test species), Rate 250 g/ha, scale 0 to 10
[10] = Postemergence section (flood test species), Rate 500 g/ha, scale of 0 to 10 where 0 is no effect and 10 is complete control
[11] = Rate 62 g/ha, Postemergence (flood test species), scale of 0 to 10 where 0 is no effect and 10 is complete control
[12] = Rate 125 g/ha, Postemergence section (flood test species), scale 0 to 10, 0 is no effect, 10 is complete control

CC(C)N(C(=O)n1oc(=O)n(C2CCCCCC2)c1=O)C1=CCCCC1 [Compound 428]
Velvetleaf plant response rating (velvetleaf; [1]): 2
Velvetleaf plant response rating (velvetleaf; [2]): 7
Plant response rating, Velvetleaf (velvetleaf; [3]): 0
Plant response rating, Velvetleaf (velvetleaf; [4]): 0
Velvetleaf plant response rating (velvetleaf; [5]): 0
Velvetleaf plant response rating (velvetleaf; [6]): 0
Velvetleaf plant response rating (velvetleaf; [7]): 0
Wheat plant response rating (wheat; [1]): 0
Wheat plant response rating (wheat; [2]): 0
Plant response rating, Wheat (wheat; [3]): 0
Plant response rating, Wheat (wheat; [4]): 0
Wheat plant response rating (wheat; [5]): 0
Wheat plant response rating (wheat; [6]): 0
Wheat plant response rating (wheat; [7]): 0
Cocklebur plant response rating (cocklebur; [1]): 0
Cocklebur plant response rating (cocklebur; [2]): 1
Plant response rating, Cocklebur (cocklebur; [3]): 0
Plant response rating, Cocklebur (cocklebur; [4]): 0
Cocklebur plant response rating (cocklebur; [5]): 0
Cocklebur plant response rating (cocklebur; [6]): 0
Cocklebur plant response rating (cocklebur; [8]): 0
Cocklebur plant response rating (cocklebur; [7]): 0
Blackgrass plant response rating (blackgrass; [1]): 3
Blackgrass plant response rating (blackgrass; [2]): 4
Plant response rating, Blackgrass (blackgrass; [3]): 0
Plant response rating, Blackgrass (blackgrass; [4]): 0
Blackgrass plant response rating (blackgrass; [5]): 0
Blackgrass plant response rating (blackgrass; [6]): 2
Blackgrass plant response rating (blackgrass; [8]): 0
Blackgrass plant response rating (blackgrass; [7]): 0
Redroot pigweed plant response rating (pigweed; [1]): 0
Redroot pigweed plant response rating (pigweed; [2]): 3
Plant response rating, Redroot pigweed (pigweed; [3]): 0
Plant response rating, Redroot pigweed (pigweed; [4]): 0
Redroot pigweed plant response rating (pigweed; [5]): 0
Redroot pigweed plant response rating (pigweed; [6]): 0
Redroot pigweed plant response rating (pigweed; [7]): 0
Sugarbeets plant response rating (sugar beet; [1]): 0
Sugarbeets plant response rating (sugar beet; [2]): 0
Plant response rating, Sugarbeets (sugar beet; [3]): 0
Plant response rating, Sugarbeets (sugar beet; [4]): 0
Sugarbeets plant response rating (sugar beet; [5]): 0
Sugarbeets plant response rating (sugar beet; [6]): 0
Sugarbeets plant response rating (sugar beet; [7]): 0
B. signalgrass plant response rating (surinam grass; Postemergence, Rate 250 g/ha, scale 0 to 10, 0 no effect, 10 complete control): 0
B. signalgrass plant response rating (surinam grass; [2]): 0
Plant response rating, B. signalgrass (surinam grass; [3]): 0
Plant response rating, B. signalgrass (surinam grass; [4]): 0
B. signalgrass plant response rating (surinam grass; [5]): 0
B. signalgrass plant response rating (surinam grass; [6]): 3
B. signalgrass plant response rating (surinam grass; [8]): 0
B. signalgrass plant response rating (surinam grass; [7]): 0
Barnyardgrass plant response rating (bamyardgrass; [9]): 2
Barnyardgrass plant response rating (bamyardgrass; [10]): 5
Barnyardgrass plant response rating (bamyardgrass; [11]): 0
Barnyardgrass plant response rating (bamyardgrass; [12]): 0
Wild oats plant response rating (wild oat; [1]): 0
Wild oats plant response rating (wild oat; [2]): 0
Plant response rating, Wild oats (wild oat; [3]): 0
Plant response rating, Wild oats (wild oat; [4]): 0
Wild oats plant response rating (wild oat; [5]): 0
Wild oats plant response rating (wild oat; [6]): 2
Wild oats plant response rating (wild oat; [7]): 0
Corn plant response rating (corn; [1]): 0
Corn plant response rating (corn; [2]): 0
Plant response rating, Corn (corn; [3]): 0
Plant response rating, Corn (corn; [4]): 0
Corn plant response rating (corn; [5]): 0
Corn plant response rating (corn; [6]): 0
Corn plant response rating (corn; [8]): 0
Corn plant response rating (corn; [7]): 0
Morningglory plant response rating (morningglory; [1]): 2
Morningglory plant response rating (morningglory; [2]): 3
Plant response rating, Morningglory (morningglory; [3]): 0
Plant response rating, Morningglory (morningglory; [4]): 0
Morningglory plant response rating (morningglory; [5]): 0
Morningglory plant response rating (morningglory; [6]): 0
Morningglory plant response rating (morningglory; [7]): 1
Soybean plant response rating (soybean; [1]): 2
Soybean plant response rating (soybean; [2]): 3
Plant response rating, Soybean (soybean; [3]): 0
Plant response rating, Soybean (soybean; [4]): 0
Soybean plant response rating (soybean; [5]): 0
Soybean plant response rating (soybean; [6]): 0
Soybean plant response rating (soybean; [7]): 1
Giant foxtail plant response rating (giant foxtail; [1]): 0
Giant foxtail plant response rating (giant foxtail; [2]): 0
Plant response rating, Giant foxtail (giant foxtail; [3]): 0
Plant response rating, Giant foxtail (giant foxtail; [4]): 7
Giant foxtail plant response rating (giant foxtail; [5]): 8
Giant foxtail plant response rating (giant foxtail; [6]): 10
Giant foxtail plant response rating (giant foxtail; [8]): 0
Giant foxtail plant response rating (giant foxtail; [7]): 0
Rice plant response rating (rice; [9]): 2
Rice plant response rating (rice; [10]): 2
Rice plant response rating (rice; [12]): 0
Crabgrass plant response rating (crabgrass; [1]): 0
Crabgrass plant response rating (crabgrass; [2]): 3
Plant response rating, Crabgrass (crabgrass; [3]): 2
Plant response rating, Crabgrass (crabgrass; [4]): 7
Crabgrass plant response rating (crabgrass; [5]): 9
Crabgrass plant response rating (crabgrass; [6]): 10
Crabgrass plant response rating (crabgrass; [8]): 0
Crabgrass plant response rating (crabgrass; [7]): 0
Ducksalad plant response rating (duck salad; [9]): 3
Ducksalad plant response rating (duck salad; [10]): 5
Ducksalad plant response rating (duck salad; [11]): 0
Ducksalad plant response rating (duck salad; [12]): 0

From US6737383B1, “Herbicidal oxadiazolidines” (priority 1999, dated 2004)
